Here are results for 31 compounds from patent US4352804A, “Oxime ethers, their preparation and pharmaceutical compositions containing them” (ACF Chemiefarma NV, priority 1978, dated 1982).

Counter-ions that a name gives are not always drawn. Like-named read-outs stand apart in the source and are kept apart here.

The conditions of data set [1]: J. Pharm. Sci. 58, 138-141 (1969); cited from earlier work.
The test system of data set [2] is indomethacin induced gastric damage in the rat. Put plainly: Anti-ulcer activity: inhibition of indomethacin induced gastric damage. The format is in vivo. As to conditions: po, 5 h, Table 2, *50 mg/kg orally, 30 min prior to and 2 h after indomethacin 15 mg/kg s.c.
Data set [3] concerns Gastric Secretion, in the Pyloric Ligated Rat. Description: Effects on gastric secretion in the pyloric ligated rat (Shay method). Particulars: intraduodenal, Table 1, 100 mg/kg i.d., 3 hours, mean of a number of experiments vs vehicle control. The data set is classed as in vivo. How it is done:
1. Effects on Gastric Secretion, in the Pyloric Ligated Rat.
The method as described by Shay et al. (Gastroenterol. 26, 906 (1945)) was used. After overnight starvation, the pylorus was ligated under halothane anaesthesia, and the compound under test or vehicle only administered intraduodenally and the rats allowed to recover. They were sacrificed three hours later and the gastric juice removed. After measurement of the volume of secretion, its hydrogen ion concentration [H^+ ] was determined by titration with 0.05 n NaOH to pH 7. Groups of 4-6 animals were used for each treatment and the inhibitory effects of the compound were ascertained by comparison of the mean values obtained with those from a simultaneously set up control group of animals which received vehicle only. Students `t` test was applied for significance between groups. The mean values for % inhibition obtained for a number of experiments are shown in the following Table 1, the dosage being 100 mg/kg i.d.

The test system of data set [4] is indomethacin induced gastric damage in the rat. Put plainly: Anti-ulcer activity: inhibition of indomethacin induced gastric damage. The data set is classed as in vivo. Particulars: po, 5 h, Table 2, 100 mg/kg orally, 30 min prior to and 2 h after indomethacin 15 mg/kg s.c. How it is done:
This was assessed by the inhibition of indomethacin induced gastric damage in the rat according to the method of Elegbe (Israeli J. Med. Sci. 10, 1451 (1974)).
Rats were starved overnight, given indomethacin subcutaneously (15 mg/kg) and sacrificed 5 hours later. Stomachs were inflated with 0.9% saline, cut along the greater curvature, pinned out and scored for gastric damage by the following system:
Score 1-3 according to the degree of erythema and slight haemorrhage.
Score 4-6 according to the degree of mucosal erosion.
Score 7-9 according to the depth of gastric damage. Groups of 7 rats were used for each treatment level of the compound under test and a similar group receiving vehicle only was set up on each occasion of testing. Compound or vehicle was administered orally 30 minutes prior to, and at 2 hours after, dosing with indomethacin. Mean values per treatment were obtained using the above scoring system and the Mann Witney test applied for significance between such values. The mean inhibition of gastric damage from a number of experiments is shown in the following Table 2; the dosage being 100 mg/kg orally.

The conditions of data set [5]: Farmaco, Ed. Sci. 19, 668-702 (1964); cited from earlier work.
[6] abbreviates: read-out: % Inhibition, Volume (of gastric secretion).
Where [7] appears, read: read-out: % Inhibition, [H^+ ] (hydrogen ion concentration of gastric juice).

`COc1ccc(C(=NOCCN(C)C)c2cccs2)cc1` [4-methoxyphenyl 2-thienyl ketone, O-dimethylaminoethyl oxime]: the “effective dose versus toxic dose” value in data set [1] is “the effective dose was very close to the toxic dose”.

In data set [2], `CO/N=C(/c1ccccc1)c1cnccn1` [Compound 1, Phenyl pyrazinyl ketone, O-methyl oxime] showed an inhibition in vivo at 50 mg/kg of 74%. The figures for the inhibition in vivo at 100 mg/kg in data set [3] (setting [6]) and in data set [3] (setting [7]) were 77% and 23%, respectively.

Consider `CO/N=C(/c1ccc(Cl)cc1)c1cnccn1` [Compound 2, 4-chlorophenyl pyrazinyl ketone, O-methyl oxime], for which the inhibition in vivo at 100 mg/kg is 68% in data set [4], 68% in data set [3] (setting [6]) and 21% in data set [3] (setting [7]).

Take `CO/N=C(/c1ccc(F)cc1)c1cnccn1` [Compound 7, 4-fluorophenyl pyrazinyl ketone, O-methyl oxime]: the values for the inhibition in vivo at 100 mg/kg in data set [4] and in data set [3] (setting [6]) were 96% and 72%, respectively.

As to `CO/N=C(\c1ccc(F)cc1)c1cnccn1` [Compound 8, 4-fluorophenyl pyrazinyl ketone, O-methyl oxime], the inhibition in vivo at 100 mg/kg was 96% in data set [4] and 72% in data set [3] (setting [6]).

For `CON=C(c1ccccc1)c1c(C)cc2ccccn12` [Compound 9, 2-methyl-3-indolizinyl phenyl ketone, O-methyl oxime], the inhibition in vivo at 100 mg/kg was found to be 83% in data set [3] (setting [6]) and 52% in data set [3] (setting [7]).

Compound `CO/N=C(\c1ccccc1)c1cn2ccccc2n1` [Compound 10, 2-imidazo[1,2-a]pyridinyl phenyl ketone, O-methyl oxime] had an inhibition in vivo at 50 mg/kg in data set [2] of 89%. Moreover, the inhibition in vivo at 100 mg/kg in data set [3] (setting [6]) is 66%; in data set [3] (setting [7]), 23%.

In turn, `CO/N=C(/c1ccccc1)c1cn2ccccc2n1` [Compound 11, 2-imidazo[1,2-a]pyridinyl phenyl ketone, O-methyl oxime] yielded an inhibition in vivo at 50 mg/kg in data set [2] of 67%. For the same compound, in data set [3] (setting [6]), the inhibition in vivo at 100 mg/kg amounted to 77%.

As to `CO/N=C(\c1ccccc1)c1cnc2ccccn12` [Compound 12, 3-imidazo[1,2-a]pyridinyl phenyl ketone, O-methyl oxime], the inhibition in vivo at 100 mg/kg in data set [4] came to 61%; in data set [3] (setting [6]), 55%; in data set [3] (setting [7]), 25%.

Take `CON=C(c1ccccc1)c1c(C)nc2ccccn12` [Compound 14, 2-methyl-3-imidazo[1,2-a]pyridinyl phenyl ketone, O-methyl oxime.HCl]: the results for the inhibition in vivo at 100 mg/kg in data set [4], in data set [3] (setting [6]) and in data set [3] (setting [7]) were 78%, 59% and 23%, respectively.

`CO/N=C(\c1ccccc1)c1ncc[nH]1` [Compound 17, 2-imidazolyl phenyl ketone, O-methyl oxime]: the inhibition in vivo at 100 mg/kg amounted to 100% in data set [4], 55% in data set [3] (setting [6]) and 26% in data set [3] (setting [7]).

As to `CO/N=C(/c1ccccc1)c1ncc[nH]1` [Compound 18, 2-imidazolyl phenyl ketone, O-methyl oxime], the values for the inhibition in vivo at 100 mg/kg in data set [4] and in data set [3] (setting [6]) were 91% and 87%, respectively.

Take `CON=C(c1ccccc1)c1nccn1C` [Compound 19, 1-methyl-2-imidazolyl phenyl ketone, O-methyl oxime]: the inhibition in vivo at 100 mg/kg in data set [4] stood at 91%; in data set [3] (setting [6]), 69%; in data set [3] (setting [7]), 49%.

`CON=C(c1ccccc1)c1nc2ccccc2[nH]1` [Compound 20, 2-benzimidazolyl phenyl ketone, O-methyl oxime]: the inhibition in vivo at 100 mg/kg in data set [4] was determined as 78%.

For `CO/N=C(\c1ccccc1)c1nccs1` [Compound 21, phenyl 2-thiazolyl ketone, O-methyl oxime], the inhibition in vivo at 100 mg/kg in data set [4] turned out to be 89%; in data set [3] (setting [6]), 57%.

`CO/N=C(/c1ccccc1)c1nccs1` [Compound 22, phenyl 2-thiazolyl ketone, O-methyl oxime.HBr]: the inhibition in vivo at 100 mg/kg in data set [4] turned out to be 78%; in data set [3] (setting [6]), 68%.

As to `CON=C(c1cnccn1)c1ccco1` [Compound 23, 2-furanyl pyrazinyl ketone, O-methyl oxime], the inhibition in vivo at 100 mg/kg in data set [4] is 98%; in data set [3] (setting [6]), 67%.

For the compound `N#CCON=C(c1ccccc1)c1cnccn1` [Compound 24, Phenyl pyrazinyl ketone, O-cyanomethyl oxime], the inhibition in vivo at 100 mg/kg in data set [4] worked out at 93%.

On to `C=CCON=C(c1ccccc1)c1cnccn1` [Compound 25, phenyl pyrazinyl ketone, O-allyl oxime], for which the results for the inhibition in vivo at 100 mg/kg in data set [4], in data set [3] (setting [6]) and in data set [3] (setting [7]) were 56%, 87% and 27%, respectively.

In data set [4], `C#CCON=C(c1ccccc1)c1cnccn1` [Compound 26, phenyl pyrazinyl ketone, O-propargyl oxime] returned an inhibition in vivo at 100 mg/kg of 53%.

For `CN(C)CCCON=C(c1ccccc1)c1cnccn1` [Compound 27, phenyl pyrazinyl ketone, O-3-N,N-dimethylaminopropyl oxime.1 maleic acid], the values for the inhibition in vivo at 100 mg/kg in data set [4], in data set [3] (setting [6]) and in data set [3] (setting [7]) were 92%, 67% and 49%, respectively.

Regarding `CN(C)CCON=C(c1ccccc1)c1cnccn1` [Compound 28, phenyl pyrazinyl ketone, O-2,N,N-dimethylaminoethyl oxime.1 maleic acid], the inhibition in vivo at 100 mg/kg in data set [3] (setting [6]) was 56%; in data set [3] (setting [7]) it was 59%.

In data set [4], `CN(C)CCCON=C(c1ccccc1)c1cnc2ccccn12` [Compound 29, 3-imidazo[1,2-a]pyridinyl phenyl ketone, O-3-N,N-dimethylaminopropyl oxime.1/2 fumaric acid] showed an inhibition in vivo at 100 mg/kg of 75%.

As to `CN(C)CCCON=C(c1ccccc1)c1ccc2ccccc2n1` [Compound 30, phenyl 2-quinolinyl ketone, O-3-N,N-dimethylaminopropyl oxime.1 fumaric acid], the inhibition in vivo at 100 mg/kg was determined as 79% in data set [4], 72% in data set [3] (setting [6]) and 37% in data set [3] (setting [7]).

Regarding `CN(C)CCCON=C(c1ccccc1)c1ncc[nH]1` [Compound 31, 2-imidazolyl phenyl ketone, O-3-N,N-dimethylaminopropyl oxime], the inhibition in vivo at 100 mg/kg is 56% in data set [4], 80% in data set [3] (setting [6]) and 72% in data set [3] (setting [7]).

On to `CN(C)CCCON=C(c1ccccc1)c1nccn1C` [Compound 32, 1-methyl-2-imidazolyl phenyl ketone, O-3-N,N-dimethylaminopropyl oxime], for which the results for the inhibition in vivo at 100 mg/kg in data set [3] (setting [6]) and in data set [3] (setting [7]) were 83% and 41%, respectively.

Regarding `CN(C)CCCON=C(c1ccccc1)c1nc2ccccc2s1` [Compound 33, 2-benzothiazolyl phenyl ketone, O-3-N,N-dimethylaminopropyl oxime.1 fumaric acid], the inhibition in vivo at 100 mg/kg in data set [4] was 62%; in data set [3] (setting [6]) it was 55%; in data set [3] (setting [7]), 38%.

As to `CN(C)CCCO/N=C(\c1ccccc1)c1nccs1` [Compound 34, phenyl 2-thiazolyl ketone, O-3-N,N-dimethylaminopropyl oxime.1 fumaric acid], the figures for the inhibition in vivo at 100 mg/kg in data set [3] (setting [6]) and in data set [3] (setting [7]) were 82% and 42%, respectively.

For the compound `CN(C)CCON=C(Cc1ccccn1)c1ccccc1` [phenyl 2-picolinyl ketone, O-dimethylaminoethyl oxime], in data set [1], the anti-androgenic activity result is on record as “showed anti-androgenic activity” and the “effective dose versus toxic dose” value is on record as “the effective dose was very close to the toxic dose”.

In the case of `C[N+](C)(C)CCON=C(c1ccccc1)c1ccccn1` [phenyl 2-pyridinyl ketone, O-dimethylaminoethyl oxime methiodide], in data set [5], the acetylcholine antagonistic activity entry was “showed acetylcholine antagonistic activity”.

Regarding “phenyl 2-pyridinyl ketone, O-di(m)ethylaminoethyl oxime”, in data set [1], the anti-androgenic activity result is recorded as “showed anti-androgenic activity” and the “effective dose versus toxic dose” value is reported as “the effective dose was very close to the toxic dose”.
